Measured values: patent US4668685A (priority 1985, dated 1987)
Structures can show the parent of a compound that is named as a salt.

Key:
[1] = Plasma hydrolysis of nalbuphine prodrug, rat plasma
[2] = Plasma hydrolysis of nalbuphine prodrug, dog plasma
[3] = Plasma hydrolysis of nalbuphine prodrug, human plasma
[4] = Plasma hydrolysis of nalbuphine prodrug, monkey plasma
[5] = Oral nalbuphine bioavailability, human
[6] = Oral nalbuphine bioavailability, monkey; conditions: 4 mg nalbuphine/kg, % dose, two values, 4 mg/kg
[7] = Oral 3-hydroxymorphinan bioavailability (nalbuphine), rat; conditions: plasma, 20 mg/kg
[8] = Oral 3-hydroxymorphinan bioavailability, dog (drug and prodrugs); conditions: 4 mg/kg
[9] = Oral 3-hydroxymorphinan bioavailability, species not printed at the place; conditions: 10 mg naloxone/kg, species not given

| Structure (SMILES) | half-life at 0.28 µM [1] [h] | half-life at 0.28 µM [2] [h] | half-life at 0.28 µM [3] [h] | half-life at 0.28 µM [4] [h] | further results |
| --- | --- | --- | --- | --- | --- |
| CC(=O)Oc1ccccc1C(=O)Oc1ccc2c3c1O[C@H]1[C@@H](O)CC[C@@]4(O)[C@@H](C2)N(CC2CCC2)CC[C@]314 [Example 1, Nalbuphine-3-(acetylsalicylate)] | 0.2 | 2.8 | 6.2 | 0.6 |  |
| Nc1ccccc1C(=O)Oc1ccc2c3c1O[C@H]1[C@@H](O)CC[C@@]4(O)[C@@H](C2)N(CC2CCC2)CC[C@]314 [Example 2, Nalbuphine-3-anthranilate hydrochloride] | 1.5 | 14.6 | 45 | 3.3 |  |
| Oc1ccc2c3c1O[C@H]1[C@@H](O)CC[C@@]4(O)[C@@H](C2)N(CC2CCC2)CC[C@]314 [nalbuphine, (-)-17-(Cyclobutylmethyl)-4,5α-epoxymorphinan-3,6α,14-triol] |  |  |  |  | Oral nalbuphine bioavailability (F) ([5]; 45 mg tablet or solution, % dose): 14%; bioavailability ([5]; plasma, po, 45 mg): 14%; Oral nalbuphine bioavailability (F) [6]: 1.6%; bioavailability ([6]; plasma, po, Oral nalbuphine bioavailability (F)): 0.9%; bioavailability [7]: 2.7 ± 0.4%; Oral nalbuphine bioavailability (F) ([8]; oral, 4 mg nalbuphine/kg, % dose, mean ± SE): 5.4 ± 0.9%; bioavailability ([8]; plasma, po): 5.4% |
| C=CCN1CC[C@]23c4c5ccc(O)c4O[C@H]2C(=O)CC[C@@]3(O)[C@H]1C5 [naloxone HCl, (-)-17-Allyl-4,5α-epoxy-3,14-dihydroxymorphinan-6-one] |  |  |  |  | Plasma naloxone concentrations after oral naloxone HCl [9]: close to the assay detection limits and as such were erratic |
